Patent publication US20060046976A1, “Method for increasing the bone mineral density and bone micro-architecture or connectivity of a mammal using N-acylated glucosamines” (priority 2004, published 2006)

System: SCW-arthritis rats
Assay: Two-dimensional subchondral bone analysis (structure, connectivity/strut analysis, plate thickness) of proximal tibia, SCW-arthritis rats
Type: in vivo, Lewis type rats
[1] = SCW + 20 mg, Middle section/lateral
[2] = SCW + 20 mg, Middle section/medial

`CCCC(=O)N[C@H]1C(O)O[C@H](CO)[C@@H](O)[C@@H]1O` (stereo partly drawn) [GlcNBu, N-butyryl-D-glucosamine] was tested, and the 2D-BV/TV % loss (SCW + 20 mg, Anterior/lateral) was 40%, the “2D-BV/TV Mean ± SEM” value (SCW + 20 mg, Anterior/lateral) was 23.7 ± 2.3% and the 2D-Tb.N % loss (SCW + 20 mg, Anterior/lateral) was 21%. For the same compound, the “2D-Tb.N Mean ± SEM” value (SCW + 20 mg, Anterior/lateral) was 5.8 ± 0.4 /mm, the 2D-Tb.Th % loss (SCW + 20 mg, Anterior/lateral) was 32% and the “2D-Tb.Th Mean ± SEM” value (SCW + 20 mg, Anterior/lateral) was 38.7 ± 1.7 um. The “End Points % loss” value (SCW + 20 mg, Anterior/lateral) was −134%, the “End Points Mean ± SEM” value (SCW + 20 mg, Anterior/lateral) was 36.2 ± 2.5 1/mm2 and the “Multiple points % loss” value (SCW + 20 mg, Anterior/lateral) was 43%. The “Multiple points Mean ± SEM” value (SCW + 20 mg, Anterior/lateral) was 9.3 ± 1.6 1/mm2, the “Node-node struts % loss” value (SCW + 20 mg, Anterior/lateral) was 75% and the “Node-node struts Mean ± SEM” value (SCW + 20 mg, Anterior/lateral) was 0.8 ± 0.2 mm/mm2. The “Total Strut length % loss” value (SCW + 20 mg, Anterior/lateral) was 30%, the “Total Strut length Mean ± SEM” value (SCW + 20 mg, Anterior/lateral) was 5.3 ± 0.4 mm/mm2 and the 2D-BV/TV % loss (SCW + 20 mg, Anterior/medial) was 33%. The “2D-BV/TV Mean ± SEM” value (SCW + 20 mg, Anterior/medial) was 27.2 ± 1.4%, the 2D-Tb.N % loss (SCW + 20 mg, Anterior/medial) was 12% and the “2D-Tb.N Mean ± SEM” value (SCW + 20 mg, Anterior/medial) was 5.6 ± 0.3 /mm. For the same compound, the 2D-Tb.Th % loss (SCW + 20 mg, Anterior/medial) was 29%, the “2D-Tb.Th Mean ± SEM” value (SCW + 20 mg, Anterior/medial) was 48.6 ± 1.6 um and the “End Points % loss” value (SCW + 20 mg, Anterior/medial) was −67%. The “End Points Mean ± SEM” value (SCW + 20 mg, Anterior/medial) was 22.5 ± 1.7 1/mm2, the “Multiple points % loss” value (SCW + 20 mg, Anterior/medial) was 42% and the “Multiple points Mean ± SEM” value (SCW + 20 mg, Anterior/medial) was 9.2 ± 1.0 1/mm2. For the same compound, the “Node-node struts % loss” value (SCW + 20 mg, Anterior/medial) was 47%, the “Node-node struts Mean ± SEM” value (SCW + 20 mg, Anterior/medial) was 1.2 ± 0.2 mm/mm2 and the “Total Strut length % loss” value (SCW + 20 mg, Anterior/medial) was 14%. The “Total Strut length Mean ± SEM” value (SCW + 20 mg, Anterior/medial) was 5.1 ± 0.3 mm/mm2, the 2D-BV/TV % loss [1] was 13% and the “2D-BV/TV Mean ± SEM” value [1] was 24.9 ± 1.6%. For the same compound, the 2D-Tb.N % loss [1] was 2%, the “2D-Tb.N Mean ± SEM” value [1] was 4.6 ± 0.2 /mm and the 2D-Tb.Th % loss [1] was 11%. The “2D-Tb.Th Mean ± SEM” value [1] was 54.3 ± 2.8 um, the “End Points % loss” value [1] was −69% and the “End Points Mean ± SEM” value [1] was 17.5 ± 1.9 1/mm2. The “Multiple points % loss” value [1] was 16%, the “Multiple points Mean ± SEM” value [1] was 8.3 ± 1.1 1/mm2 and the “Node-node struts % loss” value [1] was 3%. The “Node-node struts Mean ± SEM” value [1] was 1.0 ± 0.2 mm/mm2, the “Total Strut length % loss” value [1] was 14% and the “Total Strut length Mean ± SEM” value [1] was 4.0 ± 0.2 mm/mm2. For the same compound, the 2D-BV/TV % loss [2] was 31%, the “2D-BV/TV Mean ± SEM” value [2] was 29.2 ± 2.3% and the 2D-Tb.N % loss [2] was 1%. For the same compound, the “2D-Tb.N Mean ± SEM” value [2] was 4.6 ± 0.2 /mm, the 2D-Tb.Th % loss [2] was 30% and the “2D-Tb.Th Mean ± SEM” value [2] was 63.0 ± 4.0 um. For the same compound, the “End Points % loss” value [2] was −184%, the “End Points Mean ± SEM” value [2] was 14.1 ± 2.3 1/mm2 and the “Multiple points % loss” value [2] was 13%. For the same compound, the “Multiple points Mean ± SEM” value [2] was 9.9 ± 1.1 1/mm2, the “Node-node struts % loss” value [2] was 42% and the “Node-node struts Mean ± SEM” value [2] was 1.2 ± 0.2 mm/mm2. For the same compound, the “Total Strut length % loss” value [2] was 11%, the “Total Strut length Mean ± SEM” value [2] was 4.2 ± 0.3 mm/mm2 and the 2D-BV/TV % loss (SCW + 20 mg, Posterior/lateral) was 21%. The “2D-BV/TV Mean ± SEM” value (SCW + 20 mg, Posterior/lateral) was 24.9 ± 1.5%, the 2D-Tb.N % loss (SCW + 20 mg, Posterior/lateral) was 7% and the “2D-Tb.N Mean ± SEM” value (SCW + 20 mg, Posterior/lateral) was 4.8 ± 0.2 /mm. The 2D-Tb.Th % loss (SCW + 20 mg, Posterior/lateral) was 19%, the “2D-Tb.Th Mean ± SEM” value (SCW + 20 mg, Posterior/lateral) was 51.8 ± 1.6 um and the “End Points % loss” value (SCW + 20 mg, Posterior/lateral) was −100%. The “End Points Mean ± SEM” value (SCW + 20 mg, Posterior/lateral) was 20.0 ± 1.8 1/mm2, the “Multiple points % loss” value (SCW + 20 mg, Posterior/lateral) was 55% and the “Multiple points Mean ± SEM” value (SCW + 20 mg, Posterior/lateral) was 7.8 ± 0.8 1/mm2. The “Node-node struts % loss” value (SCW + 20 mg, Posterior/lateral) was 30%, the “Node-node struts Mean ± SEM” value (SCW + 20 mg, Posterior/lateral) was 0.9 ± 0.1 mm/mm2 and the “Total Strut length % loss” value (SCW + 20 mg, Posterior/lateral) was 11%. The “Total Strut length Mean ± SEM” value (SCW + 20 mg, Posterior/lateral) was 4.3 ± 0.2 mm/mm2, the 2D-BV/TV % loss (SCW + 20 mg, Posterior/medial) was 20% and the “2D-BV/TV Mean ± SEM” value (SCW + 20 mg, Posterior/medial) was 36.2 ± 1.6%. For the same compound, the 2D-Tb.N % loss (SCW + 20 mg, Posterior/medial) was 3%, the “2D-Tb.N Mean ± SEM” value (SCW + 20 mg, Posterior/medial) was 6.2 ± 0.2 /mm and the 2D-Tb.Th % loss (SCW + 20 mg, Posterior/medial) was 23%. For the same compound, the “2D-Tb.Th Mean ± SEM” value (SCW + 20 mg, Posterior/medial) was 59.3 ± 2.3 um, the “End Points % loss” value (SCW + 20 mg, Posterior/medial) was −216% and the “End Points Mean ± SEM” value (SCW + 20 mg, Posterior/medial) was 16.2 ± 2.1 1/mm2. For the same compound, the “Multiple points % loss” value (SCW + 20 mg, Posterior/medial) was 36%, the “Multiple points Mean ± SEM” value (SCW + 20 mg, Posterior/medial) was 12.6 ± 1.4 1/mm2 and the “Node-node struts % loss” value (SCW + 20 mg, Posterior/medial) was 37%. For the same compound, the “Node-node struts Mean ± SEM” value (SCW + 20 mg, Posterior/medial) was 1.7 ± 0.3 mm/mm2, the “Total Strut length % loss” value (SCW + 20 mg, Posterior/medial) was 10% and the “Total Strut length Mean ± SEM” value (SCW + 20 mg, Posterior/medial) was 5.7 ± 0.3 mm/mm2. The 2D-BV/TV % loss (SCW + 200 mg, Anterior/lateral) was 37%, the “2D-BV/TV Mean ± SEM” value (SCW + 200 mg, Anterior/lateral) was 24.8 ± 3.4% and the 2D-Tb.N % loss (SCW + 200 mg, Anterior/lateral) was 20%.
